What was measured:
[1] = system: patients suffering from ALS; conditions: clinical, literature; cited from earlier work
SOD1^G93A ALS mice [2] = test: Clinical and survival evaluation of treated ALS mice; format: in vivo
Procedure: Eighty Mutant SOD1^G93A female mice modeling ALS [B6.Cg-Tg (SOD1^G93A) 1Gur/J] were purchased from Jackson Laboratories (stock #004435) and 120 wild type control mice (WT), with a C57B16/J genetic background. The animal protocol complied with the European laws for the protection of experimental animals and was approved by the local ethics committee. Mice were maintained on a 12:12 h dark: light cycle with food and water available ad libitum. Moisturized food pellets were supplied when mice became weak. ALS mice were hemizygous for a 12 kb genomic fragment encoding the human wild-type or mutated SOD1 gene under its endogenous promoter. Mice carrying the human SOD1 transgene were identified by PCR screening of tail DNA using mouse SOD1 forward primer (5′-[…]-3′), human SOD1 forward primer (5′-[…]-3′) and mouse and human SOD1 reverse primer (5′-[…]-3′) resulting in a ˜800 bp mouse and a ˜600 bp human SOD1 PCR product.
To represent as close as possible the clinical disease progression in humans, treatment started at the beginning of the disease and not at a presymptomatic stage. SOD1^G93A mice are a particularly severe model in terms of symptoms. The mice quickly become too weak to tolerate general anesthesia, which led us to stop treatments at 135 days of age, or 1 month of treatment (5 sessions). This corresponds approximately to the end of the early phase of the disease.
(§1) A 1-cm, 1 MHz planar ultrasound transducer was coupled to the skin with ultrasound coupling gel and positioned to target the lumbar spinal cord. The peak acoustic pressure was 0.5 MPa for tolerance tests in WT mice and 0.35 MPa was sufficient for blood spinal cord disruption assessment and for ALS mouse procedures (FIG. 1). At the beginning of the sonication, 0.2 mL of microbubbles (SonoVue, Bracco®) were injected intravenously. Twenty-four mice were used to test the sonication protocol
Controls and US mice received a subcutaneous injection of 0.9% saline. […]
Muscle strength of mice was assessed by three different motor tests: grip testing, inverted screen testing and wire suspension testing. […]

[3] = IGF1 spinal cord uptake quantification (Quantikine ELISA human IGF-1); format: in vivo; conditions: healthy WT mice
Procedure: A 1-cm, 1 MHz planar ultrasound transducer was coupled to the skin with ultrasound coupling gel and positioned to target the lumbar spinal cord. […] At the beginning of the sonication, 0.2 mL of microbubbles (SonoVue, Bracco®) were injected intravenously. Twenty-four mice were used to test the sonication protocol
Fourteen sonicated lumbar spinal cord were compared to 15 non-sonicated lumbar spinal cord
GraphPad (GraphPad Software, San Diego, CA) was used for all statistical analysis. Statistical significance was set at p≤0.05. […] Data are represented as Mean+SEM.

SOD1^G93A ALS mice [4] = test: Histological analysis of spinal cord of the ALS treated mice (immunostaining, motor neuron counts); format: in vivo
From the text: The onset of disease was defined as the time point at which the mice were at peak weight before they started to lose weight due to progressive motor neuron denervation and muscle wasting, as shown in FIG. 1. The symptomatic stage was defined as the age at which the mice had lost 10% of their maximal weight and is accompanied by gait alterations and failure of hindlimb splaying reflex. This disease stage was followed by progressive paralysis. […] In each group some randomly assigned mice were sacrificed at the symptomatic stage (defined as 10% of weight loss) or at disease end stage for immunohistological analysis.
(§2) The spinal cord was removed and frozen in liquid nitrogen. • For immunohistological analysis and motor neuron count (fixed tissues), the mice were perfused transcardially with 20 mL PBS then 50 mL of 4% paraformaldehyde in phosphate buffer. The spinal cord was extracted, and placed for 4 hours in 4% paraformaldehyde for post-fixation and then cryopreserved in a 30% sucrose solution in PBS before freezing. Thirty-micron thick transverse sections were cut on a cryostat at −18° C. Floating segments of spinal cord were stored in phosphate buffered saline solution at 4° C. Motor neuron counts were determined on serial sections across the lumbar spinal cords (15-20 sections per animal) after Nissl staining. • For immunostaining, sections were incubated overnight at room temperature with the following antibodies: rabbit anti-Iba1 (1:500 Wako Chemicals), anti-GFAP (1:500 Dako anti GFAP), rat anti-CD4 (1:100, AbD Serotec), rat anti CD3 (1:100, AbD Serotec), rat anti CD8 (1:100, AbD Serotec, rabbit polyclonal to human SOD1 (1:10000, Abcam). Species specific Alexa Fluor 488, 594, 647 (1:1000 Life Technologies) were used as secondary antibodies
GraphPad (GraphPad Software, San Diego, CA) was used for all statistical analysis. Statistical significance was set at p≤0.05. […] Duration of early and late phases between the groups were compared by ANOVA after a normality test and followed by post-hoc Tukey-Kramer Multiple comparison test or Dunnett's multiple comparison test. Motor neuron count, immune activation and SOD1 expression were compared in different group using Kruskall Wallis test. Data are represented as Mean+SEM. Kruskal Wallis non parametric test was used to compare the total number of lymphocytes (CD4 and CD8). Survival analysis (onset disease, end-stage) was performed with Kaplan-Meier statistics. A Log-rank P value was calculated with Mantel-Cox test to compare the survival curves and corrected with the Bonferroni coefficient.

[5] = Blood spinal cord barrier opening assessed by Evan's Blue Dye spinal cord uptake quantification; format: in vivo; conditions: healthy WT mice
Procedure: as §1
Blood spinal cord opening was assessed on 27 WT mice with Evan's Blue Dye (EBD) spinal cord uptake quantification.
as §2
GraphPad (GraphPad Software, San Diego, CA) was used for all statistical analysis. Statistical significance was set at p≤0.05. […] A Log-rank P value was calculated with Mantel-Cox test to compare the survival curves and corrected with the Bonferroni coefficient.

## Nc1nc2ccc(OC(F)(F)F)cc2s1 [riluzole, 2-amino-6-trifluoromethoxybenzothiazole]
[1]
  side effects in ALS patients: asthenia, spasticity and an increase in the transaminase levels

## IGF1: rhIGF1 (Mecasermine, IPSEN Pharma), Insulin-like Growth Factor 1, subcutaneous injection of 500 μg/kg
SOD1^G93A ALS mice [2]; SOD1^G93A mice, 5 weekly sessions from P106, control 166.5 days
  ALS mouse survival (median age): 166 days
SOD1^G93A ALS mice [2]; peak weight to 10% weight loss, control 37.4±3.4, b130 gives the gain in days
  early disease phase duration: 36.8±2.8
SOD1^G93A ALS mice [2]; whether or not associated with ultrasound, 0.5 mg/kg once a week, five injections
  effect of IGF1 administration on survival or functional tests: no additional effect
[3]
  IGF1 concentration, sonicated compared to non-sonicated: 1100 times
SOD1^G93A ALS mice [4]; disease end stage
  immunofluorescent area occupied by SOD1, end stage mice: lowest percentage of SOD1
SOD1^G93A ALS mice [4]; end stage, control 11±3.6
  number of lymphocytes (CD3+) per section: 28.5±3.8
SOD1^G93A ALS mice [4]; stage not given, control 12±2.6, unit from FIG. 4 legend
  astrocyte reactivity, immunoreactive area for GFAP: 5.9±2.5%
SOD1^G93A ALS mice [4]; symptomatic stage (10% weight loss)
  immunofluorescent area occupied by SOD1, symptomatic mice: lowest percentage of SOD1
SOD1^G93A ALS mice [4]; symptomatic stage, control 10.3±0.6%
  microglial reactivity, Iba1 immunoreactivity: 5±2.1%
SOD1^G93A ALS mice [4]; symptomatic stage, control 13±3.5
  number of lymphocytes (CD3+) per section: 20±5.3

## Cc1cc(-c2ccc(/N=N/c3ccc4c(S(=O)(=O)[O-])cc(S(=O)(=O)[O-])c(N)c4c3O)c(C)c2)ccc1/N=N/c1ccc2c(S(=O)(=O)[O-])cc(S(=O)(=O)[O-])c(N)c2c1O.[Na+].[Na+].[Na+].[Na+] [EBD, Evan's Blue Dye]
[5]
  EBD concentration, sonicated compared to non-sonicated segments: 3.4 times
[5]; non-sonicated segments
  EBD concentration in spinal cord, non-sonicated segments: 41 µg/g
[5]; sonicated segments of spinal cord
  EBD concentration in spinal cord, sonicated segments: 142 µg/g

— US20250229073A1, “TRANSIENT DISRUPTION OF THE NEUROVASCULAR BARRIER OF A HUMAN AND USES THEREOF FOR TREATING AMYOTROPHIC LATERAL SCLEROSIS” (SORBONNE UNIVERSITE, priority 2022, published 2025)
